# Legend:
# [1] = tested on: prostate cancer cells (CaP); assay: Prostate cancer (CaP) cell adhesion to BMEC, cell line not distinguished; type: cell-based; conditions: 50 μM and 100 μM tested
# Procedure: (§1) FIG. 8 is a graphic representation of the effects of various peptides on altering cellular adhesion to BMEC cells in vitro. LNCaP cells were compared directly to C4-2 cells for the ability of specific phage-derived peptides to alter cellular adhesion to BMEC cells in vitro. Adhesion was measured at […]. C=control (no peptide). The ordinate represents percent of acid precipitable counts bound and the abscissa indicated the cells treated and the peptides used.
# (§2) The phage-derived bone-targeting peptides isolated by biopanning were tested for their ability to alter the adhesion of prostate cancer cells to a human bone marrow endothelial cell line (see FIG. 8). In this assay, LNCaP cells were compared directly to the more metastatic, bone colonizing derivative, C4-2.
# This observation will be examined further and exploited by the aims of this proposal to identify the binding partners of nucleolin in prostate cancer cells as well as to investigate bone tropic peptides as potential inhibitors of prostate cancer metastasis.
# [2] = tested on: LNCaP cells; assay: Prostate cancer cell adhesion to BMEC: LNCaP; type: cell-based; conditions: FIG. 8; preliminary results
# Procedure: as §1, §2
# [3] = tested on: C4-2 cells; assay: Prostate cancer cell adhesion to BMEC: C4-2; type: cell-based; conditions: FIG. 8; preliminary results
# Procedure: as §1, §2
# [4] = tested on: bone and marrow tissue sections (mouse femur, rib); assay: Biotinylated peptide binding to bone/marrow tissue sections, Avidin-FITC fluorescence; design: key to Localization of peptide binding: Bone/Marrow (tissue sections): ✓: Check marks indicate positive binding observed with FITC; −: a dash indicates a negative result
# Procedure: Methods: Four-week old Swiss Webster mice were euthanized; the femurs were excised and decalcified in 0.25M EDTA in PBS solution for 5 days, and washed in PBS for 24 hours. The femoral shafts were obtained by cutting off the proximal and distal ends of the femur. The femoral shafts were placed in Tissue-Tek O.C.T. Compound (Sukura Finetek, Torrance, Calif.) and frozen at −20° C. overnight. Sections were cut at 10 μm serially with a cryomicrotome, rinsed with 1% BSA in PBS three times. To block non-specific reaction sections were incubated with Avidin/Biotin Blocking Kit (Vector Laboratories, Inc. Burlingame, Calif.) according to the manufacturer's instructions. Following another rinse with PBS, 150 μl 10 mM solution of each biotinylated peptide (L1, L2, L7, R1, R8) was added to the slides and incubated for 1 hour at room temperature. In negative controls, only PBS was added. After rewashes with 1% BSA, 150 μl of 1:50,000 dilution of Avidin-FITC was added to each slide and incubated overnight at 4° C.
# The sections were washed with 1% BSA in PBS and mounted with Vectashield (Vector Laboratories Inc., Burlingame, Calif.). Fluorescence was visualized using a Nikon eclipse E600 microscope (Nikon, Melville, N.Y.) equipped with a 535 nm wavelength fluorescein filter. Images were obtained using a Sony DKC-5000 digital camera (Sony Electronics Inc.) and processed with Adobe Photoshop software (Adobe Systems Incorporated, San Jose, Calif.).
# (§3) For localization of peptide binding to cells and tissue sections, biotinylated peptides were synthesized. Fluorescein-isothiocyanate (FITC) labeled Avidin was used to localize the peptides on cells in culture and in tissue sections in vitro by epiluminescence microscopy. In addition, the biotinylated peptides were detected at concentrations as low as 1 μM in slot blots.
# Cryosections of decalcified femurs harvested from 4 week BALB/c mice were incubated with biotinylated peptide and Avidin-FITC. […] The distribution of fluorescence throughout the marrow was uneven. […] In control slides incubated with PBS without peptide, none of the cells could be detected by fluorescence (not shown). […]
# [5] = tested on: bovine aortic endothelial cells; assay: Effect of peptides on adherent bovine aortic endothelial cells on fibronectin or collagen; type: cell-based; conditions: 0.1M biotinylated peptide, 1 hour; cells adhered four hours on fibronectin or collagen
# Procedure: Peptides from the phage display project were added to bovine aortic endothelial cells in culture. The endothelial cells had adhered to a surface coated with collagen or with fibronectin.
# Experiment 1: Bovine aortic endothelial cells were plated on glass slides that were coated either fibronectin or collagen. The cell density was 5,000 cells/well. After the cells adhered for four hours, 0.1M of biotinylated peptide was added to each well. The following peptides were used: L1, L2, L5, L6, L7, L12, L13, L14, L19, R1, R3, and R8.
# To perform this experiment, the media was removed and the cells were rinsed with 1×PBS plus 1% BSA three times. Peptides were diluted in 1×PBS plus 1% BSA, added to cells and incubated for 1 hour. The cells were rinsed three times with 1% BSA in PBS, and fixed with 2% parafomaldehyde. Aldehyde groups were blocked with 0.2 M HCl-glycine in PBS, the cells were rinsed three times with 1% BSA in PBS and ExtrAvidin-FITC (1:200 dilution) was added and incubated overnight at 4° C. The cells were rinsed three times with 1% BSA in PBS. The chambers and the gasket were removed from each slide, Vectashield was added, covered and viewed on a Nikon microscope. Images were acquired using a Coolsnap digital camera and Metavue software. […]
# Experiment 3: The cells were adherent for about 6 hours and peptides at various concentrations were added to the cells. The concentrations of each of the peptides used in this experiment were: 0.1M, 0.01M, 0.001M and 0.0001M biotinylated peptide. The following peptides were tested: L1, L5, L6, L7, L13, L14, R1, R3, R8, DIP1 and PBS control (SEQ ID NOs:1, 3, 4, 5, 8, 9, 11, 13, 14, and 29).
# [6] = tested on: Unicortical femoral defects; assay: Peptide-mediated osteogenesis in cortical bone defects (Example 8); type: in vivo, Fisher 344 rats; conditions: 100 mM peptide in gelfoam, two weeks postoperatively; for Effectiveness at stimulating osteogenesis and cortical bone repair: versus gelfoam+PBS
# Procedure: In an in vivo study, all 13 peptides at a concentration of 100 mM were tested for their ability to potentiate osteogenesis. A gelfoam cylinder 1.5 mm in diameter 2 mm in length was used as carrier for the peptides. Unicortical femoral defects 1.5 mm in diameter were created bilaterally in Fisher 344 rats; the left femoral defect was filled with gelfoam+PBS (Control), and the right femur with gelfoam+peptide. The samples were harvested and examined two weeks postoperatively. To examine the effect of peptide concentration on cortical bone regeneration, peptide L7 (SEQ ID NO:5) was used at 1, 5, and 20 mM. […] The time course of cortical bone repair with 20 mM L7 was examined at 5, 10, 15, and 20 days.
# [7] = tested on: bone and bone marrow; assay: In vivo biopanning with 12-mer peptide phage display library; design: species or system BALB/c mice; conditions: for PERCENT FREQUENCY: phage eluted from bone and bone marrow; for PHAGE SEQUENCE FREQUENCY (number of times the sequence was found in a group of plaques): phage eluted from bone and bone marrow after repeated rounds
# Description: The Ph.D.-12 Phage Display Peptide Library Kit (New England Biolabs, Beverly, Mass.) used in this study is based on a combinatorial library of random peptide 12-mers fused to a minor coat protein (pIII). […] The peptide is followed by a short spacer of four amino acid residues, the first three residues of which are glycine and the fourth of which is serine, and then the wild-type III sequence. The library consists of approximately 2.7×10^9 electroporated sequences, amplified once to yield approximately 55 copies of each sequence.
# For in vivo biopanning, BALB/c mice 8 weeks of age were injected 3.4×10^10 pfu of phage into the heart. The animals were euthanized after 5 minutes, and the tissues (bone, bone marrow, kidney, liver, and spleen) were collected for analysis. The bound phage was eluted according the manufacturer's instructions. The eluted phage was titered, amplified, purified, and injected again at the same concentration.
# The frequency of each peptide in bone and bone marrow was compared with its location in other tissues such as liver, kidney, lung, spleen, and brain. Thirteen unique peptide sequences eluted from bone and marrow were identified were identified by sequencing phage DNA. The peptides were synthesized using the polystyrene solid support on a Protein Technologies Symphony Multiple Channel Synthesizer.
# [8] = tested on: Bone marrow cells isolated from mouse femur; assay: Peptide binding to bone marrow cells in culture (Avidin-FITC); design: key to Localization of peptide binding: Marrow (cells in culture): ✓: Check marks indicate positive binding observed with FITC; −: a dash indicates a negative result
# Procedure: as §3
# (§4) Bone marrow cells isolated from mouse femur were lifted with ethylenediaminetetraacetic acid (EDTA) and trypsin, resuspended, and allowed to attach on fibronectin-coated chamber slides for Avidin-FITC staining. […] The D1 cell is a multipotential mesenchymal stem-like line that was isolated from bone marrow and shown to have the characteristics of osteoprogenitor cells. This cell line has been well established and used successfully in several in vitro and in vivo studies in our laboratory. Peptide binding to human bone marrow endothelial cells (HBME) and bovine aortic endothelial cells (BAEC) in culture was also tested using the same procedure.
# [9] = tested on: bovine aortic endothelial cells (BAEC); assay: Peptide binding to BAEC in culture (Avidin-FITC); design: key: ✓: Check marks indicate positive binding observed with FITC; −: a dash indicates a negative result
# Procedure: as §3, §4
# [10] = tested on: Membrane and cytosol fractions from bovine aortic endothelial cells; assay: Affinity chromatography of BAEC fractions on immobilized peptide; type: binding
# Procedure: Membrane and cytosol fractions from human bone marrow endothelial cells and bovine aortic endothelial cells were prepared and used to identify the components from within these fractions that bind to the peptides using affinity chromatography). […] Cell surface nucleolin is present at higher concentrations in actively dividing cells and is down regulated in cells when they become quiescent. Nucleolin is the apparent cell surface receptor of E-coli intimin-gamma. Cell bound intimin has been proposed to trigger a host cell response similar to the extension of filipodia when cells bind to laminin. […] Table 3 provides a summary of peptide-binding partners (putative receptors) identified by affinity chromatography of cell lysates.
# [11] = tested on: human bone marrow endothelial cells (HBME); assay: Peptide binding to HBME cells in culture (Avidin-FITC); design: key: ✓: Check marks indicate positive binding observed with FITC; −: a dash indicates a negative result
# Procedure: as §3, §4
# [12] = BALB/c mouse femur cryosections, biotinylated peptide
# [13] = Swiss Webster mouse femur cryosections, 10 mM biotinylated peptide
Substance,Concentrations at which peptide inhibits prostate cancer cell adhesion to BMEC [1],Effect on adhesion of LNCaP cells to BMEC [2],Effect on adhesion of C4-2 cells to BMEC [3],"Binding to rib and long bone growth plate sections ([4]; biotinylated peptides, 1/50,000 dilution of Avidin-FITC)",Effect on adherent BAEC (Experiment 1) [5],Effectiveness at stimulating osteogenesis and cortical bone repair [6],PERCENT FREQUENCY [7],PHAGE SEQUENCE FREQUENCY (number of times the sequence was found in a group of plaques) [7],Localization of peptide binding: Marrow (cells in culture) ([8]; FITC),"Binding to adherent cells from bone marrow blowouts ([8]; fibronectin-coated chamber slides, Avidin-FITC staining)",Localization of peptide binding: BAEC [9],Binding partner from BAEC lysates ([10]; biotinylated peptide immobilized on avidin-agarose),Identification of binding partners by affinity chromatography: BAEC ([10]; cell lysates),Localization of peptide binding: HBME [11],"Cell shape preferentially recognized by peptide [4, 12]","Extent of marrow cells detected by fluorescence [4, 12]",Localization of peptide binding: Bone/Marrow (tissue sections) ([4]; FITC),"Cell shape preferentially recognized by peptide [4, 13]","Extent of marrow cells detected by fluorescence [4, 13]",Histological appearance of repair tissue in the defect [6]
ALA-THR-TRP-SER-HIS-HIS-LEU-SER-SER-ALA-GLY-LEU-GLY-GLY-GLY-SER (ATWSHHLSSAGLGGGS; listed as Homo sapiens) [Peptide R3],at 100 μM only,dose-dependent inhibition of CaP cell invasion for both cell lines,dose-dependent inhibition of CaP cell invasion for both cell lines,no staining,"the cells had lifted completely and most of the cells disappeared from the surface of the slides, leaving a lot of cell debris",most effective at stimulating osteogenesis and cortical bone repair,34.5%,10/29,–,–,–,–,–,–,–,–,–,–,–,–
SER-TYR-SER-GLN-MET-ASP-PRO-PRO-ARG-SER-LEU-PRO-GLY-GLY-GLY-SER (SYSQMDPPRSLPGGGS; listed as Homo sapiens) [Peptide R8],–,–,–,–,–,most effective at stimulating osteogenesis and cortical bone repair,24.1%,7/29,✓,showed detectable binding,✓,vimentin was found to bind,✓Vimentin,✓,recognized the round cells preferentially,did not detect as many cells,✓,recognized the round cells preferentially,did not detect as many cells,–
ASP-SER-SER-ASN-PRO-ILE-PHE-TRP-ARG-PRO-SER-SER-GLY-GLY-GLY-SER (DSSNPIFWRPSSGGGS; listed as Homo sapiens) [Peptide L19],–,strongly inhibited the less aggressive LNCaP cell,leaving the adhesion of the C4-2 cell line unaffected,–,"no effect, with results similar to PBS",virtually no stimulatory effect on osteogenesis,16.7%,5/30,–,–,–,–,–,–,–,–,–,–,–,"while some ossification and cortical bone regeneration has occurred, considerable amounts of gelfoam remains in the defect"
